Patent US10617755B2, “Combination therapy for the treatment of glioblastoma” (Genentech, Inc., priority 2013, dated 2020)

How the values were obtained:
[1] = system: newly diagnosed glioblastoma; test: AvaGlio Phase III trial: bevacizumab plus temozolomide and radiotherapy versus placebo plus temozolomide and radiotherapy; type: in vivo, human; conditions: for OS hazard ratio (HR), multivariate Cox proportional hazard model: adjusted for prognostic covariates; for OS benefit, multivariate analysis (result in words): known prognostic covariates considered
From the text: The AvaGlio trial evaluated the efficacy and safety of bevacizumab in combination temozolomide and radiotherapy for newly diagnosed glioblastoma. This study was designed as a prospective, randomized, double blind, placebo controlled Phase III evaluation of bevacizumab plus chemotherapy versus chemotherapy alone. To be eligible, patients must have had newly diagnosed glioblastoma with a tissue diagnosis that has been established following either a surgical resection or biopsy. By adding bevacizumab to chemotherapy and radiotherapy, the AvaGlio trial aimed to improve overall survival (OS) and progression-free survival (PFS) for this group of patients who had limited therapeutic options and faced a particularly poor prognosis. The primary objective was to compare OS and PFS of patients randomized to temozolomide (TMZ) and radiotherapy only or to temozolomide and radiotherapy plus bevacizumab.
This trial consisted of three phases (Concurrent, Maintenance, and Monotherapy) and two (2) treatment arms: TMZ and radiotherapy (RT) (Arm 1), and TMZ and RT plus bevacizumab (Arm 2). Patients were randomly assigned (1:1) to either arm.
Arm 1 (chemotherapy and radiotherapy alone): Eligible patients received 2 Gy RT 5 days a week for 6 weeks and 75 mg/m^2 TMZ orally daily for 6 weeks from the first day to the last day of RT in combination with 10 mg/kg placebo i.v. every 2 weeks. After a 4-week treatment break, eligible patients received 6 cycles of 150-200 mg/m^2 TMZ on days 1-5 of an every-4-week schedule in combination with 10 mg/kg placebo i.v. every 2 weeks. TMZ was administered orally starting with a 150 mg/m^2 dose that could be escalated. Placebo monotherapy (15 mg/kg every 3 weeks) was then continued until disease progression. Upon disease progression, patients were treated at the investigator's discretion.
Arm 2 (chemotherapy and radiotherapy plus bevacizumab): Eligible patients received 2 Gy RT 5 days a week for 6 weeks and 75 mg/m^2 TMZ orally daily for 6 weeks from the first day to the last day of RT in combination with 10 mg/kg bevacizumab i.v. every 2 weeks. After a 4-week treatment break, eligible patients received 6 cycles of 150-200 mg/m^2 TMZ on days 1-5 of an every-4-week schedule in combination with 10 mg/kg bevaciumab i.v. every 2 weeks. TMZ was administered orally starting with a 150 mg/m^2 dose that could be escalated. Bevaciazumab monotherapy (15 mg/kg every 3 weeks) was then continued until disease progression. Upon disease progression, patients were treated at the investigator's discretion.
The initial bevacizumab infusion was over 90 minutes, with subsequent infusions over 60 minutes and then 30 minutes, as tolerated. Bevacizumab was administered on the last day of RT and TMZ treatment, i.e., the day before the start of the TMZ treatment break.
Analyses of PFS were based on tumor assessments MacDonald Response Criteria (modified WHO criteria) using MRI of the brain and a neurological evalution as described in Macdonald et al. (J. Clin. Oncol. 8: 1277-80, 1990). Tumor assessments were performed at baseline, at the end of the 4-week treatment break, then every 8 weeks.
Next, we classified the 349 samples from the AvaGlio trial for which biomarkers could be evaluated into the gene expression subtypes defined by Phillips (Cancer Cell. 9(3): 157-173, 2006).
Samples were analyzed with the same Nanostring probe set used to derive the subtype-specific centroids and expression scores for the same genes were obtained using the same technology and probe sequences. Of the 349 samples, 10 samples from patients carrying mutation(s) in the isocitrate dehydrogenase 1 (IDH1) gene, known to be associated with good prognoses, were excluded from this analysis. Of the remaining 339 IDH1 wild-type samples, raw Nanostring counts were log 2 transformed and the mean expression and standard deviation across all samples was adjusted to the same reference values applied to the training set of Example 2 above. […]

[2] = system: newly diagnosed glioblastoma; test: as above; type: in vivo, human; conditions: known prognostic covariates considered

bevacizumab: recombinant humanized anti-VEGF monoclonal antibody generated according to Presta et al.; VL SEQ ID NO: 1, VH SEQ ID NO: 2
OS hazard ratio (HR), multivariate Cox proportional hazard model ([1]; PN subtype (Phillips), IDH1 wild-type, 95% CI 0.24-0.72, p=0.002): 0.42
extension of median OS in the treatment arm relative to the placebo arm ([1]; PN subtype (Phillips), n=99): about 4.9 months
PFS hazard ratio (HR), treatment arm relative to placebo arm ([1]; PN subtype (Phillips), n=99, 95% CI 0.37-0.9, p=0.015): 0.58
OS hazard ratio (HR), treatment arm relative to placebo arm ([1]; PN subtype (Phillips), n=99, 95% CI 0.4-0.99, p=0.043): 0.63
median OS in the treatment arm ([1]; PN subtype (Phillips), placebo arm 12.2 months): 17.1 months
OS benefit, multivariate analysis (result in words) ([1]; Phillips-classified PN subtype): statistically significant benefit in extending OS
OS benefit, multivariate analysis (result in words) ([1]; Phillips-classified non-PN subtype): do not show significant OS benefit
extension of median PFS in the treatment arm relative to the placebo arm ([1]; Phillips-classified proneural (PN) subtype, IDH1 wild-type, n=99): about 4.3 months
increase in median progression-free survival (PFS) compared to the placebo arm ([1]; all patients, treatment arm (RT/TMZ/bevacizumab) vs placebo arm): about 4.4 months
median overall survival (OS), difference between arms ([1]; all patients, treatment arm vs placebo arm): not significantly different between arms
OS hazard ratio (HR), multivariate Cox proportional hazard model ([1]; non-PN subtype (Phillips), 95% CI 0.76-1.39, p=0.863): 1.03
PFS and OS improvement (result in words) ([1]; patients having glioblastoma of the PN type): significant PFS and OS improvement
OS benefit, multivariate analysis (result in words) ([2]; TCGA-classified PN subtype): significant OS benefit
OS benefit, multivariate analysis (result in words) ([2]; TCGA-classified non-PN subtype): do not show significant OS benefit
